Tests used:
[1] = proton resonance frequency 20 MHz, available temperature closest to 37° C.; cited from earlier work
[2] = logarithmic dissociation constant for the Gd-ligand complexes (GdL); cited from earlier work
[3] = Measurement of relaxation time / relaxivity, Bruker minispec relaxometer; format: physicochemical; details: relaxivity per Gd ion, 20 MHz, 37° C., ultrapure water
Experimental: The relaxation times relating to the particles obtained were measured on a Bruker minispec NMS 120 relaxometer (Bruker, Rheinstetten, Germany) operating at a proton resonance frequency of ω/2π=20 MHz and a temperature of 37° C. In order to avoid any confusion between angular frequency ω and the frequency v, here, all of the frequencies given in Hz correspond to ω/2π=v. The spectrometer was calibrated using standard water/oil mixtures with known component ratios, in accordance with the manufacturer's instructions. The pre-diluted samples were further diluted directly in 10 mm NMR (nuclear magnetic resonance) tubes using a series containing 10×1 mL samples. All of the dilutions were made using ultrapure water. The tubes were sealed and placed in a water bath at 37° C. for at least 10 minutes before measurement, The relaxation times T1 were determined by using the inversion-recovery pulse sequence with a repetition time TR=5 s. […] In general, 100 echoes with an echo time TE between 0.5 and 2 ms depending on the concentration of the sample were recorded. […]
The relaxivities per particle were determined by firstly calculating the volume of a particle. To this end, the nanoparticles were assumed to be homogeneous in dimension and spherical with a diameter equal to the number average diameter determined by DLS (dynamic light scattering). […]

O=C([O-])CN1CCN(CC(=O)[O-])CCN([C@H](CO)[C@H](O)CO)CCN(CC(=O)[O-])CC1.[Gd+3] (racemic) [Gadovist]
r1 [1]: 4.8 mM⁻¹ s⁻¹ | pKGdL [2]: 21.1

O=C([O-])CN(CCN(CC(=O)[O-])CC(COP(=O)([O-])OC1CCC(c2ccccc2)(c2ccccc2)CC1)N(CC(=O)[O-])CC(=O)[O-])CC(=O)[O-].[Gd+3].[Na+].[Na+].[Na+] (stereo not drawn) [Ablavar]
pKGdL [2]: 6.6

CCOc1ccc(CC(CN(CCN(CC(=O)[O-])CC(=O)[O-])CC(=O)[O-])N(CC(=O)[O-])CC(=O)[O-])cc1.[Gd+3].[Na+].[Na+] (stereo not drawn) [Eovist]
r1 [1]: 5.4 mM⁻¹ s⁻¹

[Cl][Gd]([Cl])[Cl] [GdCl3]
r1^ion [3]: 10.4 mM⁻¹ s⁻¹

CNC[C@H](O)[C@@H](O)[C@H](O)[C@H](O)CO.CNC[C@H](O)[C@@H](O)[C@H](O)[C@H](O)CO.O=C([O-])CN(CCN(CC(=O)[O-])CC(=O)O)CCN(CC(=O)[O-])CC(=O)O.[Gd+3] [Magnevist]
r1 [1]: 3.8 mM⁻¹ s⁻¹ | pKGdL [2]: 22.5

CNC[C@H](O)[C@@H](O)[C@H](O)[C@H](O)CO.CNC[C@H](O)[C@@H](O)[C@H](O)[C@H](O)CO.O=C([O-])CN(CCN(CC(=O)[O-])CC(=O)O)CCN(CC(=O)O)C(COCc1ccccc1)C(=O)[O-].[Gd+3] (stereo not drawn) [MultiHance]
r1 [1]: 4.39 mM⁻¹ s⁻¹ | pKGdL [2]: 22.6

CNC(=O)CN(CCN(CCN(CC(=O)[O-])CC(=O)NC)CC(=O)[O-])CC(=O)[O-].[Gd+3] [Omniscan]
r1 [1]: 3.96 mM⁻¹ s⁻¹ | pKGdL [2]: 16.9

COCCNC(=O)CN(CCN(CCN(CC(=O)[O-])CC(=O)NCCOC)CC(=O)[O-])CC(=O)[O-].[Gd+3] [OptiMark]
r1 [1]: 4.7 mM⁻¹ s⁻¹ | pKGdL [2]: 16.8

CC(O)CN1CCN(CC(=O)[O-])CCN(CC(=O)[O-])CCN(CC(=O)[O-])CC1.[Gd+3] (stereo not drawn) [Prohance]
r1 [1]: 3.7 mM⁻¹ s⁻¹ | pKGdL [2]: 23.8

From patent US20180161461A1, “Rare Earth Oxide Particles and Use Thereof in Particular In Imaging” (Ecole Polytechnique, priority 2012, published 2018)
